Patent US20090143279A1 (priority 2007, published 2009)
Read-outs that look alike come from different tables or passages of the source.

Columns and labels:
[1] = system: mitochondrial membrane potential; assay type: cell-based, mouse; conditions: Conc 20 μM; for ΔΨm (composite Z-score): normalized score vs mock-treated (DMSO) wells
reactive oxygen species = assay type: cell-based, mouse; conditions: Conc 20 μM; for ROS (composite Z-score): normalized score vs mock-treated (DMSO) wells
OXPHOS gene expression = assay type: cell-based, mouse; conditions: Conc 20 μM; for GE-HTS (composite Z-score): normalized score vs mock-treated (DMSO) wells
nuOXPHOS transcripts = assay type: cell-based, mouse; conditions: Conc 20 μM; for nucOX (composite Z-score): normalized score vs mock-treated (DMSO) wells
mtOXPHOS transcripts = assay type: cell-based, mouse; conditions: Conc 20 μM; for mitoOX (composite Z-score): normalized score vs mock-treated (DMSO) wells
cytochrome c = assay type: cell-based, mouse; conditions: Conc 20 μM; for cyt c (composite Z-score): normalized score vs mock-treated (DMSO) wells
C2C12 myotubes = conditions: Conc 20 μM; for Viability (composite Z-score): normalized score vs mock-treated (DMSO) wells
[2] = system: cellular dehydrogenase activity; conditions: Conc 20 μM; for MTT (composite Z-score): normalized score vs mock-treated (DMSO) wells
[3] = normalized composite Z-score vs mock-treated (DMSO) wells
[4] = composite Z-score vs mock-treated (DMSO) wells

Compound `CC(C)c1ccc2c(c1)CC[C@H]1[C@](C)(C(N)=O)CCC[C@]21C` [dehydroabietamide] has a ΔΨm [1, 3] of 1.642, an ROS (reactive oxygen species; [3]) of −0.130 and a GE-HTS (OXPHOS gene expression; [3]) of −0.843. For the same compound, the nucOX (nuOXPHOS transcripts; [3]) was −0.731, the mitoOX (mtOXPHOS transcripts; [3]) was −0.877 and the cyt c (cytochrome c; [3]) was 0.030. For the same compound, the Viability (C2C12 myotubes; [3]) was 0.807 and the MTT [2, 3] was −0.187.

Work on `COc1cc2c(cc1OC)-c1c(oc3c4c(ccc3c1=O)OC(C(C)C)C4)CO2` (stereo not drawn) [dehydrodihydrorotenone, reference compound] yielded a ΔΨm [1, 4] of 0.125, an ROS (reactive oxygen species; [4]) of 0.051 and a GE-HTS (OXPHOS gene expression; [4]) of −0.001. It also gave a nucOX (nuOXPHOS transcripts; [4]) of −0.290, a mitoOX (mtOXPHOS transcripts; [4]) of 0.535 and a cyt c (cytochrome c; [4]) of −0.211. For the same compound, the Viability (C2C12 myotubes; [4]) was −0.172 and the MTT [2, 4] was −3.034.

Work on `COc1ccc2c(c1)OCc1c-2oc2cc(OC)ccc12` [dehydrovariabilin] yielded a ΔΨm ([1]; composite Z-score vs DMSO) of 0.951, an ROS (reactive oxygen species; composite Z-score vs DMSO) of 0.167 and a GE-HTS (OXPHOS gene expression; composite Z-score vs DMSO) of 0.367. The nucOX (nuOXPHOS transcripts; composite Z-score vs DMSO) was 0.277, the mitoOX (mtOXPHOS transcripts; composite Z-score vs DMSO) was 0.416 and the cyt c (cytochrome c; composite Z-score vs DMSO) was 0.043. It also gave a Viability (C2C12 myotubes; composite Z-score vs DMSO) of 0.309 and an MTT ([2]; composite Z-score vs DMSO) of −1.225.

For `CCN1C[C@]2(C)CC[C@H](OC)[C@@]34C1[C@]1(OCO[C@@]15C[C@H](OC)[C@H]1C[C@]3(O)[C@@H]5[C@H]1OC)[C@@H](OC(C)=O)[C@H]24` [deltaline], the “ΔΨm (composite Z-score)” value [1] was −0.496, the “ROS (composite Z-score)” value (reactive oxygen species) was 1.654 and the “GE-HTS (composite Z-score)” value (OXPHOS gene expression) was −0.220. The “nucOX (composite Z-score)” value (nuOXPHOS transcripts) was −0.062, the “mitoOX (composite Z-score)” value (mtOXPHOS transcripts) was −0.422 and the “cyt c (composite Z-score)” value (cytochrome c) was 0.271. For the same compound, the “Viability (composite Z-score)” value (C2C12 myotubes) was −0.735 and the “MTT (composite Z-score)” value [2] was −1.231.

In the case of `CC(=O)O[C@@H]1CC2C(C)(C)CCC[C@]2(C)C2CC[C@]3(C)C(=CC(=O)O[C@H]3c3ccoc3)[C@@]21C` (stereo partly drawn) [deoxodeoxydihydrogedunin], the ΔΨm [1, 4] is reported as 0.941, the ROS (reactive oxygen species; [4]) is reported as 0.995 and the GE-HTS (OXPHOS gene expression; [4]) is reported as −1.452. The nucOX (nuOXPHOS transcripts; [4]) was −1.370, the mitoOX (mtOXPHOS transcripts; [4]) was −1.397 and the cyt c (cytochrome c; [4]) was 0.837. It also gave a Viability (C2C12 myotubes; [4]) of 0.876 and an MTT [2, 4] of −0.551.

`CC1(C)C2CC(=O)O[C@@]3(C)C4=CC(=O)O[C@@H](c5ccoc5)[C@]4(C)CCC3[C@@]2(C)C=C[C@H]1O` (stereo partly drawn) [deoxyandirobin lactone] was tested, and the ΔΨm [1, 4] was −0.395, the ROS (reactive oxygen species; [4]) was 0.837 and the GE-HTS (OXPHOS gene expression; [4]) was −1.510. For the same compound, the nucOX (nuOXPHOS transcripts; [4]) was −1.558, the mitoOX (mtOXPHOS transcripts; [4]) was −1.179 and the cyt c (cytochrome c; [4]) was 0.893. It also gave a Viability (C2C12 myotubes; [4]) of 0.281 and an MTT [2, 4] of −1.509.

Compound `C=C1C2=CC(=O)O[C@@H](c3ccoc3)[C@]2(C)CC[C@@H]1[C@@]1(C)C=CC(=O)C(C)(C)[C@@H]1CC(=O)OC` [deoxyandirobin] has a ΔΨm [1, 4] of 0.381, an ROS (reactive oxygen species; [4]) of −1.077 and a GE-HTS (OXPHOS gene expression; [4]) of 1.352. It also gave a nucOX (nuOXPHOS transcripts; [4]) of 1.240, a mitoOX (mtOXPHOS transcripts; [4]) of 1.246 and a cyt c (cytochrome c; [4]) of 1.196. For the same compound, the Viability (C2C12 myotubes; [4]) was 0.894 and the MTT [2, 4] was 0.232.

Compound `CC(=O)O[C@@H]1C[C@H]2C(C)(C)C(=O)C=C[C@]2(C)[C@H]2CC[C@]3(C)C(=CC(=O)O[C@H]3c3ccoc3)[C@@]21C` [deoxygedunin] has a ΔΨm ([1]; composite Z-score vs DMSO) of 1.327, an ROS (reactive oxygen species; composite Z-score vs DMSO) of −0.640 and a GE-HTS (OXPHOS gene expression; composite Z-score vs DMSO) of −1.229. The nucOX (nuOXPHOS transcripts; composite Z-score vs DMSO) was −1.298, the mitoOX (mtOXPHOS transcripts; composite Z-score vs DMSO) was −0.808 and the cyt c (cytochrome c; composite Z-score vs DMSO) was 1.083. For the same compound, the Viability (C2C12 myotubes; composite Z-score vs DMSO) was −0.326 and the MTT ([2]; composite Z-score vs DMSO) was −0.532.

`CC(=O)O[C@@H]1C=C[C@]2(C)C(C[C@@H](OC(C)=O)[C@]3(C)C4=CC(=O)O[C@H](c5ccoc5)[C@@]4(C)CCC23)C1(C)C` (stereo partly drawn) [deoxygedunol acetate] showed a ΔΨm [1, 4] of 0.137, an ROS (reactive oxygen species; [4]) of 1.251 and a GE-HTS (OXPHOS gene expression; [4]) of −0.815. For the same compound, the nucOX (nuOXPHOS transcripts; [4]) was −0.850, the mitoOX (mtOXPHOS transcripts; [4]) was −0.639 and the cyt c (cytochrome c; [4]) was 0.095. It also gave a Viability (C2C12 myotubes; [4]) of −0.767 and an MTT [2, 4] of −1.930.

`Nc1nc2c(ncn2[C@H]2C[C@H](O)[C@@H](CO)O2)c(=O)[nH]1` [deoxyguanosine] gave a ΔΨm ([1]; composite Z-score vs DMSO) of −0.268, an ROS (reactive oxygen species; composite Z-score vs DMSO) of −0.110 and a GE-HTS (OXPHOS gene expression; composite Z-score vs DMSO) of −0.001. The nucOX (nuOXPHOS transcripts; composite Z-score vs DMSO) was −0.090, the mitoOX (mtOXPHOS transcripts; composite Z-score vs DMSO) was 0.245 and the cyt c (cytochrome c; composite Z-score vs DMSO) was 0.695. For the same compound, the Viability (C2C12 myotubes; composite Z-score vs DMSO) was −0.819 and the MTT ([2]; composite Z-score vs DMSO) was −0.703.

With `CC(=O)O[C@H]1C[C@@H](OC(C)=O)C(C)(C)[C@@H]2C[C@@H](OC(C)=O)[C@@]3(C)C4=CC(=O)O[C@@H](c5ccoc5)[C@]4(C)CC[C@@H]3[C@@]12C` [deoxykhivorin] the “ΔΨm (composite Z-score)” value [1] was 0.449, the “ROS (composite Z-score)” value (reactive oxygen species) was −0.038 and the “GE-HTS (composite Z-score)” value (OXPHOS gene expression) was −1.026. For the same compound, the “nucOX (composite Z-score)” value (nuOXPHOS transcripts) was −0.917, the “mitoOX (composite Z-score)” value (mtOXPHOS transcripts) was −1.101 and the “cyt c (composite Z-score)” value (cytochrome c) was 0.073. For the same compound, the “Viability (composite Z-score)” value (C2C12 myotubes) was 0.803 and the “MTT (composite Z-score)” value [2] was −0.494.

In the case of `COc1ccc2c(c1)OCC(Cc1ccc(OC)c(OC)c1)C2=O` (stereo not drawn) [deoxysappanone B trimethyl ether], the “ΔΨm (composite Z-score)” value [1] is reported as −0.194, the “ROS (composite Z-score)” value (reactive oxygen species) is reported as 1.064 and the “GE-HTS (composite Z-score)” value (OXPHOS gene expression) is reported as 0.993. For the same compound, the “nucOX (composite Z-score)” value (nuOXPHOS transcripts) was 1.050, the “mitoOX (composite Z-score)” value (mtOXPHOS transcripts) was 0.613 and the “cyt c (composite Z-score)” value (cytochrome c) was 0.336. For the same compound, the “Viability (composite Z-score)” value (C2C12 myotubes) was −0.068 and the “MTT (composite Z-score)” value [2] was −1.507.
